The results in this text go back to ChEMBL document CHEMBL3758146, “Synthesis and biological evaluation of quinazolin-4(3H)-one derivatives bearing dithiocarbamate side chain at C2-position as potential antitumor agents” (Eur J Med Chem, 2016).

One assay deals with CA46. In words: Cytotoxicity against human CA46 cells assessed as growth inhibition after 24 hrs by coulter counter analysis. In kind it is functional, cell-based. Particulars: CA46, 24 h.
Another assay relates to MCF7. In words: Cytotoxicity against human MCF7 cells assessed as growth inhibition after 48 hrs by sulforhodamine B assay. Particulars: MCF7, 48 h. It is filed as functional, cell-based. In general terms: Sulforhodamine B stains cellular protein and so reports cell mass.

pIC50: −log10 of the molar value.

One may read the pIC50 as −log10 of the IC50, conventionally taken in molar units. On to `O=c1c2cc(Cl)ccc2nc(/C=C/c2ccccc2)n1-c1ncccn1`, for which the pIC50 in the assay with CA46 is 6.00; in the assay with MCF7, 6.47.
